Laboratory results taken from the supplement of paper PMC10307832.

Key:
Test in all cases: relative viability (nuclei count vs DMSO), 5 days (fraction); higher = more cells survive
HARA = test system: HARA
How it was run: (§1)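 Relative viability divides the nuclei count in treated wells by that in vehicle wells. Lung cancer cell lines were seeded in 1536-well plates, dosed by pin tool the next day, and fixed and stained after 5 days in one step with final 0.05% Triton X-100, 1% formaldehyde and 1 ug/ml Hoechst. Dosing was a single drug or a fixed anchor-drug dose plus five library-drug doses (not always all listed) in √10 steps, and values are medians of duplicate plates imaged at 4×.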

HCC-827 = test system: HCC-827
How it was run: as §1

PC-3 [JPC-3] = test system: PC-3 [JPC-3]
How it was run: as §1

HCC-44 = test system: HCC-44
How it was run: as §1

NCI-H2087 = test system: NCI-H2087
How it was run: as §1

COR-L 105 = test system: COR-L 105
How it was run: as §1

LCLC-97TM1 = test system: LCLC-97TM1
How it was run: as §1

CAL-12T = test system: CAL-12T
How it was run: as §1

LU99A = test system: LU99A
How it was run: as §1

NCI-H1993 = test system: NCI-H1993
How it was run: as §1

LXF-289 = test system: LXF-289
How it was run: as §1

BEN = test system: BEN
How it was run: as §1

NCI-H2126 = test system: NCI-H2126
How it was run: as §1

HOP-62 = test system: HOP-62
How it was run: as §1

NCI-H727 = test system: NCI-H727
How it was run: as §1

HCC-366 = test system: HCC-366
How it was run: as §1

LC-2-ad = test system: LC-2-ad
How it was run: as §1

SK-MES-1 = test system: SK-MES-1
How it was run: as §1

HCC-15 = test system: HCC-15
How it was run: as §1

COR-L23 = test system: COR-L23
How it was run: as §1

NCI-H2009 = test system: NCI-H2009
How it was run: as §1

NCI-H2170 = test system: NCI-H2170
How it was run: as §1

PC-14 = test system: PC-14
How it was run: as §1

Compound: O=C(O)CCCCC(CCSCc1ccccc1)SCc1ccccc1 (centres undefined) [CPI-613] + CC(=O)c1c(C)c2cnc(Nc3ccc(N4CCNCC4)cn3)nc2n(C2CCCC2)c1=O [Palbociclib] (partner 0.5 µM)
- relative viability (HARA; first compound 5 µM): 0.214
- relative viability (HARA; first compound 15.81 µM): 0.26
- relative viability (HARA; first compound 50 µM): 0.309
- relative viability (HARA; first compound 158.11 µM): 0.198
- relative viability (HARA; first compound 500 µM): 0.105
- relative viability (HCC-827; first compound 5 µM): 0.465
- relative viability (HCC-827; first compound 15.81 µM): 0.491
- relative viability (HCC-827; first compound 50 µM): 0.464
- relative viability (HCC-827; first compound 158.11 µM): 0.496
- relative viability (HCC-827; first compound 500 µM): 0.417
- relative viability (PC-3 [JPC-3]; first compound 5 µM): 0.559
- relative viability (PC-3 [JPC-3]; first compound 50 µM): 0.512
- relative viability (PC-3 [JPC-3]; first compound 158.11 µM): 0.265
- relative viability (PC-3 [JPC-3]; first compound 500 µM): 0.263
- relative viability (HCC-44; first compound 5 µM): 0.959
- relative viability (HCC-44; first compound 15.81 µM): 0.954
- relative viability (HCC-44; first compound 50 µM): 1.04
- relative viability (HCC-44; first compound 158.11 µM): 0.6
- relative viability (HCC-44; first compound 500 µM): 0.606
- relative viability (NCI-H2087; first compound 5 µM): 0.253
- relative viability (NCI-H2087; first compound 15.81 µM): 0.197
- relative viability (NCI-H2087; first compound 50 µM): 0.19
- relative viability (NCI-H2087; first compound 158.11 µM): 0.0923
- relative viability (NCI-H2087; first compound 500 µM): 0.0098
- relative viability (COR-L 105; first compound 5 µM): 0.423
- relative viability (COR-L 105; first compound 15.81 µM): 0.441
- relative viability (COR-L 105; first compound 50 µM): 0.379
- relative viability (COR-L 105; first compound 158.11 µM): 0.294
- relative viability (COR-L 105; first compound 500 µM): 0.26
- relative viability (LCLC-97TM1; first compound 5 µM): 0.232
- relative viability (LCLC-97TM1; first compound 15.81 µM): 0.207
- relative viability (LCLC-97TM1; first compound 50 µM): 0.177
- relative viability (LCLC-97TM1; first compound 158.11 µM): 0.124
- relative viability (LCLC-97TM1; first compound 500 µM): 0.0897
- relative viability (CAL-12T; first compound 5 µM): 0.321
- relative viability (CAL-12T; first compound 15.81 µM): 0.283
- relative viability (CAL-12T; first compound 50 µM): 0.461
- relative viability (CAL-12T; first compound 158.11 µM): 0.0907
- relative viability (CAL-12T; first compound 500 µM): 0.0203
- relative viability (LU99A; first compound 5 µM): 0.383
- relative viability (LU99A; first compound 15.81 µM): 0.411
- relative viability (LU99A; first compound 50 µM): 0.372
- relative viability (LU99A; first compound 158.11 µM): 0.193
- relative viability (LU99A; first compound 500 µM): 0.264
- relative viability (NCI-H1993; first compound 5 µM): 0.611
- relative viability (NCI-H1993; first compound 15.81 µM): 0.581
- relative viability (NCI-H1993; first compound 50 µM): 0.715
- relative viability (NCI-H1993; first compound 158.11 µM): 0.468
- relative viability (NCI-H1993; first compound 500 µM): 0.38
- relative viability (LXF-289; first compound 5 µM): 0.561
- relative viability (LXF-289; first compound 15.81 µM): 0.59
- relative viability (LXF-289; first compound 50 µM): 0.558
- relative viability (LXF-289; first compound 158.11 µM): 0.509
- relative viability (LXF-289; first compound 500 µM): 0.393
- relative viability (BEN; first compound 5 µM): 0.457
- relative viability (BEN; first compound 15.81 µM): 0.506
- relative viability (BEN; first compound 50 µM): 0.487
- relative viability (BEN; first compound 158.11 µM): 0.483
- relative viability (BEN; first compound 500 µM): 0.42
- relative viability (NCI-H2126; first compound 5 µM): 0.334
- relative viability (NCI-H2126; first compound 15.81 µM): 0.363
- relative viability (NCI-H2126; first compound 50 µM): 0.338
- relative viability (NCI-H2126; first compound 158.11 µM): 0.213
- relative viability (NCI-H2126; first compound 500 µM): 0.162
- relative viability (HOP-62; first compound 5 µM): 0.437
- relative viability (HOP-62; first compound 15.81 µM): 0.45
- relative viability (HOP-62; first compound 50 µM): 0.427
- relative viability (HOP-62; first compound 158.11 µM): 0.186
- relative viability (HOP-62; first compound 500 µM): 0.126
- relative viability (NCI-H727; first compound 5 µM): 0.673
- relative viability (NCI-H727; first compound 15.81 µM): 0.614
- relative viability (NCI-H727; first compound 50 µM): 0.566
- relative viability (NCI-H727; first compound 158.11 µM): 0.655
- relative viability (NCI-H727; first compound 500 µM): 0.634
- relative viability (HCC-366; first compound 5 µM): 0.354
- relative viability (HCC-366; first compound 15.81 µM): 0.322
- relative viability (HCC-366; first compound 50 µM): 0.336
- relative viability (HCC-366; first compound 158.11 µM): 0.0258
- relative viability (HCC-366; first compound 500 µM): 0.006
- relative viability (LC-2-ad; first compound 5 µM): 0.446
- relative viability (LC-2-ad; first compound 15.81 µM): 0.472
- relative viability (LC-2-ad; first compound 50 µM): 0.489
- relative viability (LC-2-ad; first compound 158.11 µM): 0.24
- relative viability (LC-2-ad; first compound 500 µM): 0.168
- relative viability (SK-MES-1; first compound 5 µM): 0.305
- relative viability (SK-MES-1; first compound 15.81 µM): 0.279
- relative viability (SK-MES-1; first compound 50 µM): 0.277
- relative viability (SK-MES-1; first compound 158.11 µM): 0.14
- relative viability (SK-MES-1; first compound 500 µM): 0.145
- relative viability (HCC-15; first compound 5 µM): 0.649
- relative viability (HCC-15; first compound 15.81 µM): 0.694
- relative viability (HCC-15; first compound 50 µM): 0.681
- relative viability (HCC-15; first compound 158.11 µM): 0.332
- relative viability (HCC-15; first compound 500 µM): 0.126
- relative viability (COR-L23; first compound 5 µM): 0.285
- relative viability (COR-L23; first compound 15.81 µM): 0.321
- relative viability (COR-L23; first compound 50 µM): 0.324
- relative viability (COR-L23; first compound 158.11 µM): 0.11
- relative viability (COR-L23; first compound 500 µM): 0.0343
- relative viability (NCI-H2009; first compound 5 µM): 0.229
- relative viability (NCI-H2009; first compound 15.81 µM): 0.207
- relative viability (NCI-H2009; first compound 50 µM): 0.221
- relative viability (NCI-H2009; first compound 158.11 µM): 0.0593
- relative viability (NCI-H2009; first compound 500 µM): 0.0128
- relative viability (NCI-H2170; first compound 5 µM): 0.379
- relative viability (NCI-H2170; first compound 15.81 µM): 0.415
- relative viability (NCI-H2170; first compound 50 µM): 0.382
- relative viability (NCI-H2170; first compound 158.11 µM): 0.372
- relative viability (NCI-H2170; first compound 500 µM): 0.219
- relative viability (PC-14; first compound 5 µM): 0.534
- relative viability (PC-14; first compound 15.81 µM): 0.54
- relative viability (PC-14; first compound 50 µM): 0.49
- relative viability (PC-14; first compound 158.11 µM): 0.0565
- relative viability (PC-14; first compound 500 µM): 0.0114
